Data reported in patent US8163756B2 (priority 2004, dated 2012).
Counter-ions that a name gives are not always drawn.

Key:
Format in all cases: biochemical
[1] = target: T1, Abl kinase (Homo sapiens, UniProt P00519); assay: Abl kinase assay A2 (as A1, 1.1 nM enzyme, 2 h pre-incubation, 0.5 mM ATP)
T1 sequence (P00519 229-512): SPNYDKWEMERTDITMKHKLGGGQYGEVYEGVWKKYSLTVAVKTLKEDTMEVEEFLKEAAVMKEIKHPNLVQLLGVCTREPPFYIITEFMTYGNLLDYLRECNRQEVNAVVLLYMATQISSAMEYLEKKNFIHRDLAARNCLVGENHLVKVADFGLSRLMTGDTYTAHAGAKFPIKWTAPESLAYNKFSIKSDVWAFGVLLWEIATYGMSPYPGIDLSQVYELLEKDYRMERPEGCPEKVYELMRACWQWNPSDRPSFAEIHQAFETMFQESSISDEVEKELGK
Description: (§1) IC50 values were calculated from a series of percent inhibition values determined at a range of inhibitor concentrations using software routines as implemented in the GraphPad Prism software package.

[2] = target: T2, KDR kinase (Homo sapiens, UniProt P35968, DEL940-989/E990V); assay: KDR kinase assay K2 (as K1, 2.1 nM enzyme, 2 h pre-incubation, 1.0 mM ATP)
T2 sequence (P35968 with tags, fused parts or gaps DEL940-989/E990V): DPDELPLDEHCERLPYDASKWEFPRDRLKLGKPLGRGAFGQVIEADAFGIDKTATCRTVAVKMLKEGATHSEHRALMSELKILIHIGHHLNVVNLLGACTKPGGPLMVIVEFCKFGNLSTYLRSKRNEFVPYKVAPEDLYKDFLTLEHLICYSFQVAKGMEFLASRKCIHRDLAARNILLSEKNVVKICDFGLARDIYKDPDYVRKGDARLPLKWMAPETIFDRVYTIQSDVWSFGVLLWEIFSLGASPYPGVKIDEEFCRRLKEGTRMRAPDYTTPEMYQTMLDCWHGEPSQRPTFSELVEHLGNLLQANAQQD
Description: as §1

[3] = target: T3, B-Raf(V599E) kinase (Homo sapiens, UniProt P15056, V600E); assay: B-Raf(V599E) kinase assay B1 (construct 1, MEK1 substrate, coupled spectrophotometric)
Description: (§2) The test compounds were incubated with the reaction mixtureat 30° C. for 2 h. […] The reaction rate was calculated using the […] time frame. […] IC50 values were calculated from a series of percent inhibition values determined at a range of inhibitor concentrations using software routines as implemented in the GraphPad Prism software package.
Target sequence in this assay (P15056 with tags, fused parts or gaps V600E): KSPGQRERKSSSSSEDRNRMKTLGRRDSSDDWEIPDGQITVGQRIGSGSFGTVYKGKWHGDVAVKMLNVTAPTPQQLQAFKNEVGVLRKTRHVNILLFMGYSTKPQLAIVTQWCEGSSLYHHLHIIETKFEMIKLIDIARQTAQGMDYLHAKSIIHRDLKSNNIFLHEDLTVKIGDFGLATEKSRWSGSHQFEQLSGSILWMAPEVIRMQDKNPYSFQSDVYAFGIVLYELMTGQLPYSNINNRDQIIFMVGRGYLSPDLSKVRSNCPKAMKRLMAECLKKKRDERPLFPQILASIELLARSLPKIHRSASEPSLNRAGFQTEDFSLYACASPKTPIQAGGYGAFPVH

[4] = target: phosphorylated p-38-alpha kinase (Homo sapiens, UniProt Q16539); assay: P-38 alpha kinase assay P1 (coupled spectrophotometric, 2 h pre-incubation); details: method P1 (2 h pre-incubation); read-out: P-38 Data
phosphorylated p-38-alpha kinase, sequence (Q16539 1-360 isoform Q16539-2): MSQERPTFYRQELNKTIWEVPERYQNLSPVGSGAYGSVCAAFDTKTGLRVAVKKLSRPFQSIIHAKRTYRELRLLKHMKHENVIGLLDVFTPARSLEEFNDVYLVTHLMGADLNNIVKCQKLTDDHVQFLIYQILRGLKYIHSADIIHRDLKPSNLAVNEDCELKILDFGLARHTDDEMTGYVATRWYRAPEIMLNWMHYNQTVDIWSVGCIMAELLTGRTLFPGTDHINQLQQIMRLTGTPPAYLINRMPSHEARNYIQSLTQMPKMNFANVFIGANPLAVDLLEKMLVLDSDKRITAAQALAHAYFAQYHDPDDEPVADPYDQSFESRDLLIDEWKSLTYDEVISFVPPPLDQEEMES

[5] = target: T3, B-Raf(V599E) kinase; assay: B-Raf(V599E) kinase assay B2 (construct 2 at 2 nM, 1 h pre-incubation)
Description: as §2
Target sequence in this assay (P15056 433-726 V600E): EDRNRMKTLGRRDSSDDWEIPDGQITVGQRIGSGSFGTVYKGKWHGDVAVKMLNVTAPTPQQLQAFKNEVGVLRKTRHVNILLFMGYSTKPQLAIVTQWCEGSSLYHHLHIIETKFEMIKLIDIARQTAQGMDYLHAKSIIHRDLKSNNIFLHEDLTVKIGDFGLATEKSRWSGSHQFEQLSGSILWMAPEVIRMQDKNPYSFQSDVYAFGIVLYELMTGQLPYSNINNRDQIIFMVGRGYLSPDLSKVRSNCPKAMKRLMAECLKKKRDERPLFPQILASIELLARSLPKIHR
Same as assay B1 except that (1) construct 2 was employed at a nominal concentration of 2 nM (2) the reaction was pre-incubated at 30° C. for 1 h prior to initiation with ATP (3) a reading time frame of 0.5 h to 1.5 h.

[6] = target: T1, Abl kinase; assay: Abl kinase assay A1 (pyruvate kinase/lactate dehydrogenase coupled, spectrophotometric); details: Method A1; read-out: Abl Data (IC50)
Description: as §1

[7] = target: T2, KDR kinase; assay: KDR kinase assay K1 (pyruvate kinase/lactate dehydrogenase coupled, spectrophotometric); details: Method K1; read-out: KDR Data (IC50)
Description: as §1

[8] = Method A2, read-out: Abl Data (IC50)
[9] = Method K2, read-out: KDR Data (IC50)

CC(C)(C)c1cc(NC(=O)Nc2cccc(Oc3cccnc3)c2)n(-c2cc(CN)c3ccccc3c2)n1 [Example 72, 1-(1-(4-(aminomethyl)naphthalen-2-yl)-3-t-butyl-1H-pyrazol-5-yl)-3-(3-(pyridin-3-yloxy)phenyl)urea]
IC50 [1, 8]: 2 nM
IC50 [2, 9]: 8.5 nM
IC50 [3]: 4.4 nM

CNC(=O)C1NCCc2cc(-n3nc(C(C)(C)C)cc3NC(=O)Nc3cccc(Oc4cccnc4)c3)ccc21 (stereo not drawn) [Example 180, 1-(3-t-butyl-1-(1-(methylcarbamoyl)-1,2,3,4-tetrahydroisoquinolin-6-yl)-1H-pyrazol-5-yl)-3-(3-(pyridin-3-yloxy)phenyl)urea]
IC50 [1, 8]: 9 nM
IC50 [2, 9]: 7.8 nM
IC50 [3]: 11 nM
IC50 [4]: 65 nM

CC(C)(C)c1cc(NC(=O)Nc2ccc(-c3cccc4c3CNC4=O)cc2)n(-c2cccc(-c3cn[nH]c3)c2)n1 [Example 51, 1-(1-(3-(1H-pyrazol-4-yl)phenyl)-3-t-butyl-1H-pyrazol-5-yl)-3-(4-(1-oxoisoindolin-4-yl)phenyl)urea]
IC50 [5]: 29 nM
IC50 [1, 8]: 52 nM

COc1cccc(-n2nc(C(C)(C)C)cc2NC(=O)Nc2cccc(F)c2F)c1 [Example 236, 1-[3-t-butyl-1-(3-methoxy-phenyl)-1H-pyrazol-5-yl]-3-(2,3-difluorophenyl)urea]
IC50 [5]: 2050 nM
IC50 [2, 9]: 3500 nM
IC50 [4]: 250 nM

CC(C)(C)c1cc(NC(=O)Nc2ccc(F)c(F)c2F)n(-c2cc(CC(=O)NCC(O)CO)c3ccccc3c2)n1 (stereo not drawn) [Example 96, 1-(3-t-butyl-1-(4-(2-(2,3-dihydroxypropyl-amino)-2-oxoethyl)naphthalen-2-yl)-1H-pyrazol-5-yl)-3-(2,3,4-trifluorophenyl)urea]
IC50 [5]: 378 nM
IC50 [4]: 48 nM
IC50 [6]: 100 nM

CNC(=O)C1Cc2cc(-n3nc(C(C)(C)C)cc3NC(=O)Nc3cccc(Oc4cccnc4)c3)ccc2CN1 (stereo not drawn) [Example 190, 1-(3-t-butyl-1-(3-(methylcarbamoyl)-1,2,3,4-tetrahydroisoquinolin-6-yl)-1H-pyrazol-5-yl)-3-(3-(pyridin-3-yloxy)phenyl)urea]
IC50 [1, 8]: 4 nM
IC50 [2, 9]: 8.1 nM
IC50 [4]: 78 nM

CC(C)(C)c1cc(NC(=O)Nc2ccc(-c3cccc4c3CNC4=O)cc2)n(-c2ccc3c(c2)CCNC3)n1 [Example 151, 1-(3-t-butyl-1-(1,2,3,4-tetrahydroisoquinolin-6-yl)-1H-pyrazol-5-yl)-3-(4-(1-oxoisoindolin-4-yl)phenyl)urea hydrochloride]
IC50 [1]: 8 nM
IC50 [2]: 3.5 nM

CC(C)(C)c1cc(NC(=O)Nc2cccc(Oc3cccnc3)c2)n(-c2ccc3[nH]c(=O)ccc3c2)n1 [Example 156, 1-(3-t-butyl-1-(2-oxo-1,2-dihydroquinolin-6-yl)-1H-pyrazol-5-yl)-3-(3-(pyridin-3-yloxy)phenyl)urea]
IC50 [1, 8]: 5 nM
IC50 [2, 9]: 3.2 nM
IC50 [3]: 4.1 nM

CC(C)(C)c1cc(NC(=O)Nc2ccc(Cl)cc2)n(-c2cc(CNC(=O)NS(C)(=O)=O)c3ccccc3c2)n1 [Example 74, 1-{3-t-butyl-1-[1-(methanesulfonylureidoamidomethyl)naphthalen-3-yl]-1H-pyrazol-5-yl}-3-(4-chlorophenyl-1-yl)urea]
IC50 [5]: 934 nM
IC50 [2, 9]: 2500 nM
IC50 [6]: 2100 nM

CC(C)(C)c1cc(NC(=O)Nc2cccc(Cl)c2Cl)n(-c2cccc(-c3cn[nH]c3)c2)n1 [Example 50, 1-(1-(3-(1H-pyrazol-4-yl)phenyl)-3-t-butyl-1H-pyrazol-5-yl)-3-(2,3-dichlorophenyl)urea]
IC50 [5]: 168 nM
IC50 [4]: 29 nM
IC50 [6]: 380 nM
IC50 [7]: 52 nM

NC(=O)C1CCc2ccc(-n3nc(C4CCCC4)cc3NC(=O)Nc3cccc(Cl)c3Cl)cc21 (stereo not drawn) [Example 305, 1-(1-(3-carbamoyl-2,3-dihydro-1H-inden-5-yl)-3-cyclopentyl-1H-pyrazol-5-yl)-3-(2,3-dichlorophenyl)urea]
IC50 [5]: 788 nM
IC50 [4]: 19 nM

CNC(=O)c1cc(Oc2ccc(NC(=O)Nc3cc(C(C)(C)C)nn3-c3ccc4nc(N)ccc4c3)cc2)ccn1 [Example 176, 1-(1-(2-aminoquinolin-6-yl)-3-t-butyl-1H-pyrazol-5-yl)-3-(4-(2-(methylcarbamoyl)pyridin-4-yloxy)phenyl)urea]
IC50 [5]: 44 nM
IC50 [1, 8]: 2.8 nM

COc1cccc(-n2nc(C(C)(C)C)cc2NC(=O)Nc2ccccc2F)c1 [Example 235, 1-[3-t-butyl-1-(3-methoxy-phenyl)-1H-pyrazol-5-yl]-3-(2-fluorophenyl)urea]
IC50 [5]: 1040 nM
IC50 [2, 9]: 3500 nM
IC50 [4]: 120 nM

CC(C)(C)c1cc(NC(=O)Nc2cc(F)c(F)cc2F)n(-c2cccc(-c3cccnc3)c2)n1 [Example 275, 1-(3-t-butyl-1-(3-(pyridin-3-yl)phenyl)-1H-pyrazol-5-yl)-3-(2,4,5-trifluorophenyl)urea]
IC50 [5]: 832 nM

CC(C)(C)c1cc(NC(=O)Nc2cc(F)cc(F)c2F)n(-c2cc(CC(N)=O)c3ccccc3c2)n1 [Example 85, 1-(1-(4-(2-amino-2-oxoethyl)naphthalen-2-yl)-3-t-butyl-1H-pyrazol-5-yl)-3-(2,3,5-trifluorophenyl)urea]
IC50 [5]: 219 nM
IC50 [6]: 33 nM

CC(C)(C)c1cc(NC(=O)Nc2cccc(Oc3cccnc3)c2)n(-c2ccc3[nH]ccc3c2)n1 [Example 116, 1-(3-t-butyl-1-(1H-indol-5-yl)-1H-pyrazol-5-yl)-3-(3-(pyridin-3-yloxy)phenyl)urea]
IC50 [1, 8]: 6.6 nM
IC50 [2, 9]: 5 nM
IC50 [3]: 5.9 nM

CC(C)(C)c1cc(NC(=O)Nc2cccc(Oc3cccnc3)c2)n(-c2ccc3c(c2)CCN3)n1 [Example 119, 1-(3-t-butyl-1-(indolin-5-yl)-1H-pyrazol-5-yl)-3-(3-(pyridin-3-yloxy)phenyl)urea]
IC50 [1, 8]: 12 nM
IC50 [3]: 9.1 nM
IC50 [4]: 60 nM
IC50 [7]: 18 nM

CC(C)(C)c1cc(NC(=O)Nc2cccc(Cl)c2Cl)n(-c2ccc3c(c2)CCNC3)n1 [Example 138, 1-(3-t-butyl-1-(1,2,3,4-tetrahydroisoquinolin-6-yl)-1H-pyrazol-5-yl)-3-(2,3-dichlorophenyl)urea]
IC50 [1, 8]: 100 nM
IC50 [3]: 3.2 nM
IC50 [4]: 140 nM
IC50 [7]: 300 nM

CC(C)(C)c1cc(NC(=O)Nc2cccc(Oc3cccnc3)c2)n(-c2ccc3c(c2)CCNC3)n1 [Example 141, 1-(3-t-butyl-1-(1,2,3,4-tetrahydro-isoquinolin-6-yl)-1H-pyrazol-5-yl)-3-(3-(pyridin-3-yloxy)phenyl)urea]
IC50 [1]: 1.5 nM
IC50 [2, 9]: 8.5 nM
IC50 [3]: 7.5 nM
IC50 [4]: 730 nM

NC(=O)Cc1cccc(-c2ccc(C(F)(F)F)cc2NC(=O)Nc2ccc(-c3cccc4c3CNC4=O)cc2)c1 [Example 33, [1,1′-biphenyl]-2′-(3-(4-(1-oxoisoindolin-4-yl)phenyl)ureido)-4′-(trifluoromethyl)-3-acetic acid amide]
IC50 [1, 8]: 250 nM
IC50 [2, 9]: 14 nM
IC50 [4]: 300 nM

CC(C)(C)c1cc(NC(=O)Nc2cccc(Oc3cccnc3)c2)n(-c2ccc3ncccc3c2)n1 [Example 55, 1-(3-t-butyl-1-(quinolin-6-yl)-1H-pyrazol-5-yl)-3-(3-(pyridin-3-yloxy)phenyl)urea]
IC50 [1, 8]: 3.5 nM
IC50 [2, 9]: 4 nM
IC50 [3]: 5.4 nM
IC50 [4]: 130 nM

CC(C)(C)c1cc(NC(=O)Nc2cccc(Cl)c2Cl)n(-c2cccc(-c3n[nH]c(=O)o3)c2)n1 [Example 278, 1-(3-t-butyl-1-(3-(5-oxo-4,5-dihydro-1,3,4-oxadiazol-2-yl)phenyl)-1H-pyrazol-5-yl)-3-(2,3-dichlorophenyl)urea]
IC50 [5]: 153 nM

CC(C)(C)c1cc(NC(=O)Nc2cccc(Cl)c2Cl)n(-c2ccc3[nH]ccc3c2)n1 [Example 115, 1-(3-t-butyl-1-(1H-indol-5-yl)-1H-pyrazol-5-yl)-3-(2,3-dichlorophenyl)urea]
IC50 [5]: 979 nM
IC50 [2, 9]: 810 nM
IC50 [4]: 490 nM
IC50 [6]: 170 nM

CC(C)(C)c1cc(NC(=O)Nc2cccc(Oc3cccnc3)c2)n(-c2cccc(-c3cccnc3)c2)n1 [Example 277, 1-(3-t-butyl-1-(3-(pyridin-3-yl)phenyl)-1H-pyrazol-5-yl)-3-(3-(pyridin-3-yloxy)phenyl)urea]
IC50 [1, 8]: 29 nM
IC50 [2, 9]: 10 nM
IC50 [3]: 11 nM
IC50 [4]: 180 nM

CC(C)(C)c1cc(NC(=O)Nc2cccc(Oc3cccnc3)c2)n(-c2ccc3c(c2)CC(C(N)=O)NC3)n1 (stereo not drawn) [Example 179, 1-(3-t-butyl-1-(3-carbamoyl-1,2,3,4-tetrahydroisoquinolin-6-yl)-1H-pyrazol-5-yl)-3-(3-(pyridin-3-yloxy)phenyl)urea]
IC50 [1, 8]: 3 nM
IC50 [2, 9]: 6.4 nM
IC50 [3]: 17 nM
IC50 [4]: 96 nM
